d = 2'-deoxy (DNA); r = 2'-OH (RNA)
System: A549 cells-derived tumors
Experiment: Next-generation sequencing (NGS) of si-NT- and si-hSMAC-A-treated tumors
Type: in vivo, human
Experimental: Libraries were prepared by the INCPM-RNA-seq unit (Weizmann Institute, Israel). Briefly, polyA fraction (mRNA) was purified from 500 ng of total RNA, isolated as above, followed by fragmentation and generation of double stranded cDNA. End repair, a base addition, adapter ligation and PCR amplification steps were performed according to established methods. Libraries were evaluated by Qubit and TapeStation. Sequencing libraries were constructed with barcodes to allow multiplexing of 20 samples in one lane. Between 22 and 26 million reads single-end 60-bp reads were sequenced per sample on Illumina HiSeq 2500 V4 instrument.
Bioinformatics analyses were carried out at the Bioinformatics Core Facility at the National Institute for Biotechnology in the Negev, Ben-Gurion University. Raw sequence reads were assessed for quality using FASTQC and further trimmed for removal of remaining adaptors and low quality bases using Trimmomatic. The trimmed reads from each sample were separately aligned to the human and mouse genomes (GRCh38 and GRCm38.75, respectively) using STAR v2.3.0 with default settings. An average of 23.7±0.8 million reads per sample was obtained. Of these, an average of 13, 2.6, 7.8 and 0.3 million reads were mapped to human only, mouse only, both human and mouse, and none of them, respectively. After rejection of multi-mapped reads, a total of 11.5±2.5 human-specific, uniquely mapped reads, and 2.3±1.7 mouse-specific, uniquely mapped reads were subjected for further analysis. The number of aligned reads per gene per sample were counted using HTSeq count with “intersection-nonempty” (to handle reads that overlap with more than one gene) and “no stranded” as parameters. The other parameters were set to their default. Normalization and statistical analysis for differential expression were carried out using DESeq2 v1.6.3. Fold change values were converted to linear scale, with a minus sign indicating down-regulation.
Differentially expressed genes were defined as those having a p-value<0.05, and linear fold change>1.5 and <−1.5. Functional analysis was performed using the Gene Ontology system, DAVID and Expander software tools.
NGS was used to investigate changes in patterns of gene expression in si-NT-TTs and si-hSMAC-A-TTs (FIG. 10, and Tables 3-5). […] As si-hSMAC is human-specific, any effect on mouse gene expression must be mediated by the human tumor cells.
The major functional groups were changes were seen are presented below.

[1] = vs si-NT-TTs, EXTRACELLULAR MATRIX
[2] = vs si-NT-TTs, EXTRACELLULAR SPACE
[3] = vs si-NT-TTs, METABOLISM RELATED ENZYMES
[4] = vs si-NT-TTs, METABOLISM RELATED ENZYMES, listed as si-SMAC
[5] = vs si-NT-TTs, REDOX STATE REGULATION

Question: Which results are given for “si-hSMAC-A: siRNA to human SMAC/Diablo; sense 5′AAGCGGUGUUUCUCAGAAUUGtt3′ (SEQ ID NO:20), antisense 5′AACAAUUCUGAGAAACCCGCtt3′ (SEQ ID NO:21) (sense AAGCGGUGUUUCUCAGAAUUGTT; antisense AACAAUUCUGAGAAACCCGCTT; sense: sugars from the 5' end r21 d2, backbone not given here; antisense: sugars from the 5' end r20 d2, backbone not given here)”?
Answer: Fold change FBN1 [1]: −1.7 fold; Fold change GPC6 [1]: −1.8 fold; Fold change MMP2 [1]: −2.9 fold; Fold change NLGN2 [1]: −1.8 fold; Fold change SMOC1 [1]: −1.6 fold; Fold change TGFBI [1]: −1.9 fold; Fold change VCAN [1]: −1.5 fold; Fold change VTN [1]: −1.6 fold; Fold change CCL24 [2]: 1.9 fold; Fold change CCL28 [2]: 1.9 fold; Fold change CPM [2]: −1.7 fold; Fold change CX3CL1 [2]: 1.6 fold; Fold change IGFBP1 [2]: −1.6 fold; Fold change IGFBP3 [2]: −1.8 fold; Fold change LGALS3 [2]: 1.6 fold; Fold change MST1 [2]: −1.6 fold; Fold change PROC [2]: 1.8 fold; Fold change SPINK1 [2]: 1.9 fold; Fold change SPINT1 [2]: 1.7 fold; Fold change WISP2 [2]: −1.7 fold; Fold change ACSLA (acyl-CoA synthetase long-chain family member 4) [3]: −1.6 fold; Fold change ADARB1 [3]: −2.1 fold; Fold change ADH4 [3]: −2.6 fold; Fold change ADI1 [3]: 1.8 fold; Fold change AGPAT2 [3]: 1.6 fold; Fold change B3GNT6 [3]: 2.1 fold; Fold change BLVRA [3]: 1.7 fold; Fold change CAD [3]: −1.6 fold; Fold change CDA [3]: 2.0 fold; Fold change CMAS [3]: 1.5 fold; Fold change DGAT2 [3]: 4.9 fold; Fold change DGKD [3]: −1.5 fold; Fold change DHRS9 [3]: 2.8 fold; Fold change ELOVL3 [3]: 7.4 fold; Fold change ELOVL4 [3]: 145.2 fold; Fold change ENTPD8 [3]: 2.7 fold; Fold change FAR2 [3]: 4.1 fold; Fold change FASN [3]: −1.5 fold; Fold change FAXDC2 [3]: 2.1 fold; Fold change FUT3 [3]: 2.7 fold; Fold change FUT6 [3]: 1.8 fold; Fold change GALNT5 [3]: 1.6 fold; Fold change GALNT6 [3]: 1.9 fold; Fold change GALNT12 [3]: 1.6 fold; Fold change GCNT3 [3]: 1.7 fold; Fold change GPT2 [3]: 1.5 fold; Fold change LIPH [3]: 1.9 fold; Fold change MGAT4B [3]: 1.5 fold; Fold change ORMDL2 [3]: 1.5 fold; Fold change PADI1 [3]: 3.8 fold; Fold change PCK1 [3]: −6.9 fold; Fold change PLCB4 [3]: 1.7 fold; Fold change SDR16C5 [3]: 3.0 fold; Fold change ST3GAL4 [3]: 1.5 fold; Fold change ST6GALNAC1 [3]: 1.6 fold; Fold change STARD10 [3]: 3.7 fold; Fold change ELOVL3 [4]: 7 fold; Fold change ELOVL4 [4]: 145 fold; Fold change ANXA10 (vs si-NT-TTs, Mitochondria): −1.7 fold; Fold change BIK (vs si-NT-TTs, Mitochondria): 2.1 fold; Fold change C10orf2 (TWINK) (vs si-NT-TTs, Mitochondria): −1.9 fold; Fold change CHCHD7 (vs si-NT-TTs, Mitochondria): 1.6 fold; Fold change CPS1 (vs si-NT-TTs, Mitochondria): −4.8 fold; Fold change CYP24A1 (vs si-NT-TTs, Mitochondria): −1.9 fold; Fold change ENDOG (vs si-NT-TTs, Mitochondria): 1.8 fold; Fold change MT-ND4L (vs si-NT-TTs, Mitochondria): −1.9 fold; Fold change MT-ND5 (vs si-NT-TTs, Mitochondria): −1.6 fold; Fold change MYO19 (vs si-NT-TTs, Mitochondria): −1.6 fold; Fold change STARD13 (vs si-NT-TTs, Mitochondria): −2.2 fold; Fold change GSTP1 [5]: −1.6 fold; Fold change NOS1 [5]: −5.9 fold; Fold change PXDN [5]: 3.3 fold; Fold change SOD2 [5]: −1.9 fold; Fold change TXN [5]: 2.1 fold; Fold change ANO1 (vs si-NT-TTs, TRANSPORTERS): 3.4 fold; Fold change ATP10B (vs si-NT-TTs, TRANSPORTERS): 25.5 fold; Fold change CRACR2A (vs si-NT-TTs, TRANSPORTERS): 3.2 fold; Fold change GLTP (vs si-NT-TTs, TRANSPORTERS): 1.8 fold; Fold change KCNK1 (vs si-NT-TTs, TRANSPORTERS): 1.7 fold; Fold change KCNN4 (vs si-NT-TTs, TRANSPORTERS): 1.8 fold; Fold change SCNN1A (vs si-NT-TTs, TRANSPORTERS): 1.9 fold; Fold change SLC4A4 (vs si-NT-TTs, TRANSPORTERS): −3.3 fold; Fold change SLC6A9 (vs si-NT-TTs, TRANSPORTERS): −1.7 fold; Fold change SLC24A1 (vs si-NT-TTs, TRANSPORTERS): −1.6 fold; Fold change SLC25A37 (vs si-NT-TTs, TRANSPORTERS): −1.5 fold; Fold change SLC44A4 (vs si-NT-TTs, TRANSPORTERS): 2.2 fold; Fold change SLC45A3 (vs si-NT-TTs, TRANSPORTERS): 1.8 fold; Fold change SLCO2B1 (vs si-NT-TTs, TRANSPORTERS): −2.8 fold; Fold change TMC4 (vs si-NT-TTs, TRANSPORTERS): 6.3 fold; Fold change TMC8 (vs si-NT-TTs, TRANSPORTERS): 2.4 fold; Fold change ATP10B (vs si-NT-TTs, TRANSPORTERS, listed as si-SMAC): 25 fold; number of genes with significant changes (≥1.5-fold change, adjusted P value<0.05, human and murine): 848

— US11976280B2, “SMAC/Diablo inhibitors useful for treating cancer” (THE NATIONAL INSTITUTE FOR BIOTECHNOLOGY IN THE NEGEV LTD., priority 2017, dated 2024)
